# According to patent publication US8551999B2, “Heterocyclic compound and pharmaceutical composition thereof” (Otsuka Pharmaceutical Co., Ltd., priority 2007, dated 2013):
row,melting point [°C],Compound
1,224 to 230,"Br.CCN(C(=O)Nc1ccc(C(F)(F)F)cc1)c1ccc(Oc2ccc3c(c2)cc(C(=O)N2CCN(Cc4ccccc4)CC2)n3C)nc1 [Example 580, 1-{6-[2-(4-Benzylpiperazine-1-carbonyl)-1-methyl-1H-indol-5-yl-oxy]pyridin-3-yl}-1-ethyl-3-(4-trifluoromethylphenyl)urea hydrobromide]"
2,226.1 to 227.3,"Br.Cc1ccc(C(=O)N(C)c2ccc(Oc3ccc4cc(C(=O)N5CCN(Cc6ccc(OCC(F)(F)F)cc6)CC5)n(C)c4c3)nc2)cc1 [Example 23, 4,N-Dimethyl-N-[6-(1-methyl-2-{4-[4-(2,2,2-trifluoroethoxy)-benzyl]piperazine-1-carbonyl}-1H-indol-6-yloxy)pyridin-3-yl]-benzamide hydrobromide]"
3,174.8 to 175.8,"CN(c1ccc(Oc2ccc3c(c2)cc(C(=O)N2CCN(Cc4ccc(OCC(F)(F)F)cc4)CC2)n3C)nc1)S(=O)(=O)c1ccc(Cl)c(Cl)c1 [Example 528, 3,4-Dichloro-N-methyl-N-[6-(1-methyl-2-{4-[4-(2,2,2-trifluoro-ethoxy)benzyl]piperazine-1-carbonyl}-1H-indol-5-yloxy)pyridin-3-yl]benzenesulfonamide]"
4,217.4 to 218.3,Cc1cc(C(F)(F)F)ccc1C(=O)Nc1ccc(Oc2ccc3cc(C(=O)N4CCN(Cc5ccc(OCC(F)(F)F)cc5)CC4)n(C)c3c2)nc1.Cl
5,199.4 to 203.1,"Br.C[C@H]1CN(C(=O)c2cc3ccc(Oc4ccc(NC(=O)c5ccc(OC(F)(F)F)cc5)cn4)cc3n2C)CCN1Cc1ccc(OCC(F)(F)F)cc1 [Example 293, N-[6-(1-Methyl-2-{(S)-3-methyl-4-[4-(2,2,2-trifluoroethoxy)-benzyl]piperazine-1-carbonyl}-1H-indol-6-yloxy)pyridin-3-yl]-4-trifluoromethoxybenzamide hydrobromide]"
6,235.8 to 237.8,"Br.Cc1cc(Oc2ccc3cc(C(=O)N4CCN(Cc5ccc(OCC(F)(F)F)cc5)CC4)n(C)c3c2)ncc1N(C)S(C)(=O)=O [Example 78, N-Methyl-N-[4-methyl-6-(1-methyl-2-{4-[4-(2,2,2-trifluoroethoxy)-benzyl]piperazine-1-carbonyl}-1H-indol-6-yloxy)pyridin-3-yl]-methanesulfonamide hydrobromide]"
7,126 to 128,"COc1ccc(C(=O)N2CCN(C(=O)c3cc4cc(Oc5ccc(N(C)C(=O)c6ccc(C(F)(F)F)cc6)cn5)ccc4n3C)CC2)cc1 [Example 241, N-(6-{2-[4-(4-Methoxybenzoyl)piperazine-1-carbonyl]-1-methyl-1H-indol-5-yloxy}pyridin-3-yl)-N-methyl-4-trifluoromethylbenzamide]"
8,241 to 245,"Br.Cn1c(C(=O)N2CCN(Cc3ccc(OCC(F)F)cc3)CC2)cc2cc(Oc3ccc(NC(=O)c4ccc(Cl)c(Cl)c4)cn3)ccc21 [Example 407, 3,4-Dichloro-N-[6-(2-{4-[4-(2,2-difluoroethoxy)benzyl]piperazine-1-carbonyl}-1-methyl-1H-indol-5-yloxy)pyridin-3-yl]benzamide hydrobromide]"
9,121.9 to 122.5,"Cc1ccc(S(=O)(=O)N(C)c2ccc(Oc3ccc4cc(C(=O)N5CCN(Cc6ccc(OCC(F)F)cc6)CC5)n(C)c4c3)nc2)cc1 [Example 524, N-[6-(2-{4-[4-(2,2-Difluoroethoxy)benzyl]piperazine-1-carbonyl}-1-methyl-1H-indol-6-yloxy)pyridin-3-yl]-4,N-dimethylbenzene-sulfonamide]"
10,256.9 to 257.7,CN(c1ccc(Oc2ccc3cc(C(=O)N4CCN(Cc5ccc(OCC(F)(F)F)cc5)CC4)n(C)c3c2)nc1)S(=O)(=O)c1ccc(C(F)(F)F)cc1.Cl
11,174 to 178,"Cn1c(C(=O)N2CCN(C3CCOCC3)CC2)cc2cc(Oc3ccc(NS(=O)(=O)c4ccc(C(F)(F)F)cc4)cn3)ccc21 [Example 332, N-(6-{1-Methyl-2-[4-(tetrahydropyran-4-yl)piperazine-1-carbonyl]-1H-indol-5-yloxy}pyridin-3-yl)-4-trifluoromethylbenzene-sulfonamide]"
12,229 to 231,"Br.Cn1c(C(=O)N2CCN(Cc3ccc(OC(F)F)cc3)CC2)cc2cc(Oc3ccc(NC(=O)c4ccc(C(F)(F)F)cc4)cn3)ccc21 [Example 400, N-(6-{2-[4-(4-Difluoromethoxybenzyl)piperazine-1-carbonyl]-1-methyl-1H-indol-5-yloxy}pyridin-3-yl)-4-trifluoromethylbenzamide hydrobromide]"
13,194.1 to 195.8,"CN(c1ccc(Oc2ccc3cc(C(=O)N4CCN(Cc5ccc(OCC6CC6)cc5)CC4)n(C)c3c2)nc1)S(=O)(=O)c1ccc(Cl)c(Cl)c1 [Example 514, 3,4-Dichloro-N-(6-{2-[4-(4-cyclopropylmethoxybenzyl)piperazine-1-carbonyl]-1-methyl-1H-indol-6-yloxy}pyridin-3-yl)-N-methyl-benzenesulfonamide]"
14,234.6 to 237.2,"Br.COc1ccc(CN2CCN(C(=O)c3cc4ccc(Oc5ccc(NC(=O)c6ccc(Cl)c(Cl)c6)cn5)cc4n3C)CC2)cc1 [Example 258, 3,4-Dichloro-N-(6-{2-[4-(4-methoxybenzyl)piperazine-1-carbonyl]-1-methyl-1H-indol-6-yloxy}pyridin-3-yl)benzamide hydrobromide]"
15,135.9 to 136.8,"CCCOc1ccc(CN2CCN(C(=O)c3cc4ccc(Oc5ccc(N(C)S(=O)(=O)c6ccc(C)cc6)cn5)cc4n3C)CC2)cc1 [Example 32, 4,N-Dimethyl-N-(6-{1-methyl-2-[4-(4-propoxybenzyl)piperazine-1-carbonyl]-1H-indol-6-yloxy}pyridin-3-yl)benzenesulfonamide]"
16,243.4 to 244.4,CN(c1ccc(Oc2ccc3cc(C(=O)N4CCN(Cc5ccc(OCC(F)(F)F)cc5)CC4)n(C)c3c2)nc1)S(=O)(=O)CC(F)(F)F.Cl
17,134.3 to 135.6,"CC(C)Oc1ccc(CN2CCN(C(=O)c3cc4ccc(Oc5ncc(N(C)S(C)(=O)=O)cn5)cc4n3C)CC2)cc1 [Example 45, N-(2-{2-[4-(4-Isopropoxybenzyl)piperazine-1-carbonyl]-1-methyl-1H-indol-6-yloxy}pyrimidin-5-yl)-N-methylmethanesulfonamide]"
18,149 to 152,"Cn1c(C(=O)N2CCN(Cc3ccc(C#N)cc3)CC2)cc2cc(Oc3ccc(NC(=O)c4ccc(C(F)(F)F)cc4)cn3)ccc21.O=C(O)/C=C\C(=O)O [Example 552, N-(6-{2-[4-(4-Cyanobenzyl)piperazine-1-carbonyl]-1-methyl-1H-indol-5-yloxy}pyridin-3-yl)-4-trifluoromethylbenzamide maleate]"
19,249 to 253.7,"Br.Cn1c(C(=O)N2CCN(Cc3ccc(OC(F)F)cc3)CC2)cc2ccc(Oc3ccc(NC(=O)c4ccc(Cl)c(Cl)c4)cn3)cc21 [Example 254, 3,4-Dichloro-N-(6-{2-[4-(4-difluoromethoxybenzyl)piperazine-1-carbonyl]-1-methyl-1H-indol-6-yloxy}pyridin-3-yl)benzamide hydrobromide]"
20,135 to 138,"COc1ccc(CN2CCN(C(=O)c3cc4cc(Oc5ccc(NC(=O)c6ccc(C(F)(F)F)cc6)cn5)ccc4n3C)CC2)cn1.O=C(O)/C=C\C(=O)O [Example 348, N-(6-{2-[4-(6-Methoxypyridin-3-ylmethyl)piperazine-1-carbonyl]-1-methyl-1H-indol-5-yloxy}pyridin-3-yl)-4-trifluoromethylbenzamide maleate]"
